Experimental data: ChEMBL document CHEMBL5715949, “Discovery of a selective irreversible BMX inhibitor for prostate cancer” (ACS Chem Biol, 2013)
The source made the active and inactive calls. The calls are words filed in the database; no cut-off is given here.

Key:
[1] = Inhibition of PI3K/AKT/mTOR signalling pathway in human RV-1 cells assessed as decrease in 4EBP phosphorylation at T37/46 residue at 200 nM incubated for 5 days by immunoblot analysis; type: cell-based; details: time 5.0 day
[2] = Inhibition of PI3K/AKT/mTOR signalling pathway in human RV-1 cells assessed as decrease in S6K phosphorylation at T389 residue at 200 nM incubated for 5 days by immunoblot analysis; type: cell-based; details: time 5.0 day
[3] = molecular target: Cytoplasmic tyrosine-protein kinase BMX (Homo sapiens) (UniProt P51813); test: Inhibition of BMX (unknown origin) at < 10 uM by Z'LYTE assay
Sequence of Cytoplasmic tyrosine-protein kinase BMX (Homo sapiens) (P51813 whole entry): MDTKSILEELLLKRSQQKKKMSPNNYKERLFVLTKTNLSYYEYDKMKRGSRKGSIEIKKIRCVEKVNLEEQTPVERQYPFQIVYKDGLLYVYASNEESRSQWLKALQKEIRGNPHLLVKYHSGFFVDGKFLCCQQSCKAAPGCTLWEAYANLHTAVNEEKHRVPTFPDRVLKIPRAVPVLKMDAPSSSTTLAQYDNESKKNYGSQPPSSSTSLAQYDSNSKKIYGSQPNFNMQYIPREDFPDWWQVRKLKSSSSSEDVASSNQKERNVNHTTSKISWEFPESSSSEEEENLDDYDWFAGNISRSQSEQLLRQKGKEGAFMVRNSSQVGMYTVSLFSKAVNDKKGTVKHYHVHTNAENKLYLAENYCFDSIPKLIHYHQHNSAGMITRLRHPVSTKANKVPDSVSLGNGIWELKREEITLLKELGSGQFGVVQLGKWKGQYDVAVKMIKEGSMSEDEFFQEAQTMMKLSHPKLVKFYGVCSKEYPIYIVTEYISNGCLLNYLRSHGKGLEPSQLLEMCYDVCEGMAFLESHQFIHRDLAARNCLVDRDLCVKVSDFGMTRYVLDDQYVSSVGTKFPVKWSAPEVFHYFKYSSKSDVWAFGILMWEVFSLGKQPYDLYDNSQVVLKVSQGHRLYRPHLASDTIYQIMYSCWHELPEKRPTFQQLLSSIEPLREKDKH

[4] = Induction of cell cycle arrest in human RV-1 cells assessed as accumulation of cells at G1 phase at 200 nM incubated for 5 days by propidium iodide staining based flow cytometric analysis (reference value: 59.7 %); type: functional; details: time 5 day
[5] = Induction of cell cycle arrest in human RV-1 cells assessed as accumulation of cells at S phase at 200 nM incubated for 5 days by propidium iodide staining based flow cytometric analysis (reference value: 28.9 %); type: functional; details: time 5 day
[6] = Inhibition of PI3K/AKT/mTOR signalling pathway in human RV-1 cells assessed as decrease in AKT phosphorylation at S473 residue at 200 nM incubated for 4 hrs by immunoblot analysis; type: cell-based
[7] = Inhibition of PI3K/AKT/mTOR signalling pathway in human RV-1 cells assessed as decrease in AKT phosphorylation at T308 residue at 200 nM incubated for 4 hrs by immunoblot analysis; type: cell-based
[8] = Induction of cell cycle arrest in human RV-1 cells assessed as accumulation of cells at G2/M phase at 200 nM incubated for 5 days by propidium iodide staining based flow cytometric analysis (reference value: 11.4 %); type: functional; details: time 5 day
[9] = Inhibition of PI3K/AKT/mTOR signalling pathway in human RV-1 cells assessed as decrease in PRAS40 phosphorylation at T246 residue at 200 nM incubated for 4 hrs by immunoblot analysis; type: cell-based
RV-1 [10] = test: Antiproliferative activity against human RV-1 cells assessed as reduction in cell viability at 1. 5 to 20 uM incubated for 3 days by tryphan blue assay; type: functional, cell-based; details: dose 5-20 µM, time 3.0 day
BaF3 [11] = test: Antiproliferative activity against mouse BaF3 cells expressing TEL-fused TYK2 […] mutant assessed growth inhibition incubated for 2 to 5 days by CellTiter-Glo assay; type: functional; details: time 2-5 day
BaF3 [12] = test: Antiproliferative activity against mouse BaF3 cells expressing TEL-fused BMX assessed growth inhibition incubated for 2 to 5 days by CellTiter-Glo assay; type: functional, cell-based; details: time 2-5 day
BaF3 [13] = test: Antiproliferative activity against mouse BaF3 cells expressing TEL-fused JAK2 assessed growth inhibition incubated for 2 to 5 days by CellTiter-Glo assay; type: functional; details: time 2-5 day
[14] = Down regulation of BMX protein expression in human RV-1 cells expressing wild type BMX assessed protein expression level at 2.5 uM pre incubated for 4 hrs followed by compound wash out and additon of CHX and measured after 16 hrs by immunoblot analysis (reference value: 0.98 to 1.01); type: functional
BaF3 [15] = test: Antiproliferative activity against mouse BaF3 cells expressing TEL-fused BLK assessed growth inhibition incubated for 2 to 5 days by CellTiter-Glo assay; type: functional; details: time 2-5 day
RV-1 [16] = test: Down regulation of BMX protein expression in human RV-1 cells expressing wild type BMX at 5 uM incubated for 72 hrs by western blot analysis; type: functional, cell-based
RV-1 [17] = test: Down regulation of BMX protein expression in human RV-1 cells expressing BMX C496S mutant at 5 uM incubated for 72 hrs by western blot analysis; type: functional, cell-based
[18] = Down regulation of BMX protein expression in human RV-1 cells expressing wild type BMX assessed protein expression level at 2.5 uM pre incubated for 4 hrs followed by compound wash out and additon of CHX and measured after 24 hrs by immunoblot analysis (reference value: 0.98 to 1.01); type: functional
[19] = Down regulation of BMX protein expression in human RV-1 cells expressing BMX C496S mutant assessed protein expression level at 2.5 uM pre incubated for 4 hrs followed by compound wash out and additon of CHX and measured after 24 hrs by immunoblot analysis (reference value: 1.01 to 1.13); type: functional
[20] = Cytotoxicity against mouse BaF3 cells assessed growth inhibition incubated for 2 to 5 days by CellTiter-Glo assay; type: toxicity, cell-based; details: time 2-5 day
[21] = Down regulation of BMX protein expression in human RV-1 cells expressing BMX C496S mutant assessed protein expression level at 2.5 uM pre incubated for 4 hrs followed by compound wash out and additon of CHX and measured after 16 hrs by immunoblot analysis (reference value: 1.01 to 1.13); type: functional
BaF3 [22] = test: Antiproliferative activity against mouse BaF3 cells expressing TEL-fused JAK1 assessed growth inhibition incubated for 2 to 5 days by CellTiter-Glo assay; type: functional; details: time 2-5 day
BaF3 [23] = test: Antiproliferative activity against mouse BaF3 cells expressing TEL-fused JAK3 assessed growth inhibition incubated for 2 to 5 days by CellTiter-Glo assay; type: functional; details: time 2-5 day

Cl.NC1(c2ccc(-c3nc4ccn5c(=O)[nH]nc5c4cc3-c3ccccc3)cc2)CCC1
inhibition [1]: Active | inhibition [2]: Active | inhibition [3]: inactive | Activity [4]: 60% | Activity [5]: 29.1% | inhibition [6]: Active | inhibition [7]: Active | Activity [8]: 10.9% | inhibition [9]: Active

C=CC(=O)N1CCC[C@@H](n2nc(-c3ccc(Oc4ccccc4)cc3)c3c(N)ncnc32)C1
Activity (RV-1 [10]): Active

CCC(=O)Nc1cc(-n2c(=O)ccc3cnc4ccc(NS(C)(=O)=O)cc4c32)ccc1C
GI50 (BaF3 [11]): > 10 µM | GI50 (BaF3 [12]): > 10 µM | GI50 (BaF3 [13]): > 10 µM | Activity [14]: 0.64 | GI50 (BaF3 [15]): > 10 µM | Activity (RV-1 [16]): inactive | Activity (RV-1 [17]): inactive | Activity [18]: 0.72 | Activity [19]: 0.51 | GI50 [20]: > 10 µM | Activity [21]: 0.8 | GI50 (BaF3 [22]): > 10 µM | GI50 (BaF3 [23]): > 10 µM
